The nature of experiment [1]: Reaction kinetics of TPENNO2 with the thiol of Cys.
The nature of experiment [2]: Selectivity test of TPENNO2: essential amino acids. The conditions noted are these: 25 μM TPENNO2 in PBS, 300 μM analyte, 37℃, 30 min, Ex=341 nm.
In experiment [3] the test system is thiol compounds in HeLa cells [HeLa细胞内巯基化合物]. The experiment is described as follows: Fluorescence imaging of intracellular thiols in HeLa cells. The format is cell-based, human.
Experiment [4] can be described thus: Response time of TPENNO2 to Cys (fluorescence vs incubation time). The note with it: 25 μM TPENNO2, PBS (50 mM, pH 7.4, 2.5% DMSO), 200 μM Cys, 37℃.
A short description of experiment [5]: Selectivity test of TPENNO2: Hcy. The note with it: 300 μM Hcy, 37℃, 30 min, Ex=341 nm.
Experiment [6] is described as follows: Reaction kinetics of TPENNO2 with the thiol of GSH.
A short description of experiment [7]: Selectivity test of TPENNO2: GSH. The conditions noted are these: 300 μM GSH, 37℃, 30 min, Ex=341 nm.

Take `O=[N+]([O-])c1ccc(S(=O)(=O)Nc2ccc(C(=C(c3ccccc3)c3ccccc3)c3ccccc3)cc2)c([N+](=O)[O-])c1` [TPENNO2]: the “first-order reaction kinetic constant with the thiol of Cys” value in experiment [1] turned out to be 0.13 min⁻¹. The “change of fluorescence intensity after reaction with essential amino acids other than Cys” value in experiment [2] is on record as “没有明显增强”. In experiment [3] (4 μM TPENNO2, 20 min, no pretreatment, Ex 405 nm, 450-550 nm collected), the “fluorescence signal in HeLa cells” value was “绿色荧光信号”. The “fluorescence signal in HeLa cells after Cys pretreatment” value in experiment [3] (0.5 mM Cys 24 h, then 4 μM TPENNO2, 20 min) was “荧光信号增强”. Also, the “fluorescence signal in HeLa cells after NEM pretreatment” value in experiment [3] (0.5 mM NEM (N-ethylmaleimide, thiol-consuming) 15 min, then 4 μM TPENNO2, 20 min) is given as “荧光信号减弱”. The “incubation time after which fluorescence intensity is essentially saturated” value in experiment [4] is given as 30 min. Further, in experiment [5] (25 μM TPENNO2 in PBS), the “change of fluorescence intensity after reaction with Hcy” value is listed as “没有明显增强”. Besides, the “interference of Hcy with Cys detection” value in experiment [5] is “干扰均较小”. The “first-order reaction kinetic constant with the thiol of GSH” value in experiment [6] was determined as 0.0048 min⁻¹. The “change of fluorescence intensity after reaction with GSH” value in experiment [7] (25 μM TPENNO2 in PBS) is “没有明显增强”. For the same compound, the “interference of GSH with Cys detection” value in experiment [7] is given as “干扰均较小”.

Values taken from CN106905199A, “一种基于聚集诱导发光原理用于选择性检测半胱氨酸的荧光试剂的合成及应用” (Gannan Normal University, priority 2017, dated 2017).
